The values that follow come from patent publication US11780851B2, “LRRK2 inhibitors” (H. Lundbeck A/S, priority 2021, dated 2023).

By IC50 is commonly meant the midpoint of a concentration-inhibition curve. As a reminder, the Kp is tissue or fluid exposure divided by exposure in the circulation. In general, CLint scaled refers to the capacity of the preparation to metabolise the compound, expressed as a volume cleared per time.

A short description of series [1]: Free fraction in plasma (equilibrium dialysis). The class given is in vitro ADME, male Sprague-Dawley rat. As to conditions: rat plasma, 1 μM, 5 h at 37° C. Here is the method:
The free fractions in male Sprague-Dawley rat or female Gottingen minipig plasma (fuplasma) and rat brain homogenate (fubrain) were determined by equilibrium dialysis using 96-well HTD-dialysis plates with dialysis membranes (molecular weight cut off 12-14 KDa). One side of the HTD-dialysis plate was loaded with matrix (plasma or brain homogenate) and the other side with buffer (100 mM sodium phosphate buffer, pH 7.4). Test compounds were dissolved in DMSO then spiked (5 μL of 0.2 mM) into blank (995 μL) plasma or diluted brain homogenate (1:4 ratio in phosphate buffer) giving a final nominal concentration 1 μM (≤0.5% DMSO). The matrices were loaded into respective chambers and equilibrated against phosphate buffer for 5 h at 37° C. (in a humidified air incubator with 5% CO2 with shaking). Samples from both chambers (buffer and plasma or brain homogenate) were aliquoted to fresh 96-well polypropylene plates then matrix matched using an equal volume of opposite blank matrix before extraction with cold solvent (3 volumes acetonitrile) containing an appropriate bioanalytical internal standard. After centrifugation (20 min, 3200 g, 4° C.) the supernatants were diluted with appropriate volumes of water and compound concentrations were quantified by LC/MS-MS against matrix matched calibration standards. The fuplasma and fubrain were calculated as a percent free according to equation 4 below.
Where [F] is the analyte concentration on the buffer (receiver) side of the membrane; [T] is the analyte concentration on the plasma or brain (donor) side of the membrane; [TO] is the analyte concentration in the plasma or brain sample at time zero; D is matrix dilution factor which is determined as 4 for brain matrix and 1 for plasma matrix in these assays.
In general terms: In equilibrium dialysis free small molecules cross a membrane that holds back macromolecules.

The target of the next series is T1, LRRK2 G2019S (Homo sapiens, UniProt Q5S007, G2019S).
T1 construct: purchased Invitrogen (Life Technologies Corporation)
Nature of the series: LRRK2 G2019S kinase activity assay (LanthaScreen TR-FRET). It is filed as biochemical. The settings on record: 250 pM LRRK2 G2019S, 1.3 mM ATP, 3 h at 30° C.; n≥2 tests. The gist of the method: (§1)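 TR-FRET measured phosphorylation of fluorescein-ERM LRRKtide by human LRRK2 residues 970–2527, wild-type or G2019S, detected with a terbium anti-phospho-LRRKtide antibody. The 520/495 nm ratio was normalized to uninhibited and inhibitor controls. IC50 came from a Hill fit, log-averaged over independent experiments.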
On the technique in general: In TR-FRET formats the signal depends on donor and acceptor labels being close together.

For a further series, the target named is T2, LRRK2 WT (Homo sapiens, UniProt Q5S007).
T2 construct: comprises residue 970 to 2527 of the full length human wild-type LRRK2 kinase; purchased Invitrogen (Life Technologies Corporation)
The series can be described thus: LRRK2 wild-type kinase activity assay (LanthaScreen TR-FRET). The class given is biochemical. The settings on record: 1 nM LRRK2 WT, 1.3 mM ATP, 3.5 h at 30° C.; n≥2 tests. The gist of the method:
as §1

Series [2] in a line: Rat B/P (brain disposition). The class given is in vivo, male Sprague-Dawley rats. As to conditions: male, Sprague-Dawley; for concentration at 1 h / Kp uu at 1 h / Kp at 1 h: time point 1.0 h; for concentration at 1 h / Kp at 1 h / concentration at 0.5 h / Kp at 0.5 h: mean ± stdev; for Kp uu at 1 h / Kp at 1 h / Kp uu at 0.5 h / Kp at 0.5 h: brain/plasma; for Kp uu at 1 h / Kp uu at 0.5 h: fubrain from brain homogenate; for Kp at 1 h / Kp at 0.5 h: n = 3; for concentration at 0.5 h / Kp uu at 0.5 h / Kp at 0.5 h: time point 0.5 h. Here is the method:
Brain disposition was evaluated for each compound in male Sprague-Dawley rats (n=3, standard body weight). […] Isolated plasma and brain homogenates were extracted by standard protein precipitation in acetonitrile, containing internal standard, followed by LC-MS/MS analysis using an optimized analytical method. Concentrations of test compound in plasma and brain were quantified against matrix matched calibration standards. The total plasma and brain concentration data are presented in Table 7 alongside the calculated brain Kp (total brain concentration:total plasma concentration ratio).

Series [3] can be described thus: Hepatocyte intrinsic clearance assay. The class given is in vitro ADME, human. The settings on record: human, pooled donor, cryopreserved hepatocytes, pH 7.4, 0.1 μM, 2 h at 37° C., 1×10^6 hepatocytes/mL; * measured on 3 separate occasions, ** on a single occasion. The protocol: Test compounds (final concentration 0.1 μM, 0.05% organic) were incubated for 2 h at 37° C., with shaking, in supplemented Leibovitz L-15 media (pH7.4) containing commercially sourced, pooled donor, cryopreserved hepatocytes (final concentration 1×10^6 hepatocytes/m L). The CLint reactions (350 μL) were initiated by addition of test compound. Aliquots (25 μL) were taken at 1, 5, 10, 15, 30, 60, 90 and 120 minutes and then protein crashed with ice-cold acetonitrile containing internal standard (150 μL) then centrifuged (1960 g for 20 minutes at 4° C.). Supernatant was diluted (1:4) with deionized water then analyzed by liquid chromatography (LC)-tandem mass spectrometry (MS/MS). The intrinsic clearances (CLint) were calculated from the slope (k) of the linear regressions of percentages of compound remaining in incubation against incubation time, according to equations 2 and 3.

Setting [4] is: brain, oral gavage 5 mg/kg, n = 3, read-out: Total brain concentration.
Where [5] appears, read: plasma, oral gavage 5 mg/kg, n = 3, read-out: Total plasma concentration.
The mark [6] stands for this setting: brain, oral gavage 10 mg/kg, n = 3, read-out: Total brain concentration.
The mark [7] stands for this setting: plasma, oral gavage 10 mg/kg, n = 3, read-out: Total plasma concentration.

Where two headings read alike, the source gives them in different places.

T2 sequence (Q5S007 970-2527): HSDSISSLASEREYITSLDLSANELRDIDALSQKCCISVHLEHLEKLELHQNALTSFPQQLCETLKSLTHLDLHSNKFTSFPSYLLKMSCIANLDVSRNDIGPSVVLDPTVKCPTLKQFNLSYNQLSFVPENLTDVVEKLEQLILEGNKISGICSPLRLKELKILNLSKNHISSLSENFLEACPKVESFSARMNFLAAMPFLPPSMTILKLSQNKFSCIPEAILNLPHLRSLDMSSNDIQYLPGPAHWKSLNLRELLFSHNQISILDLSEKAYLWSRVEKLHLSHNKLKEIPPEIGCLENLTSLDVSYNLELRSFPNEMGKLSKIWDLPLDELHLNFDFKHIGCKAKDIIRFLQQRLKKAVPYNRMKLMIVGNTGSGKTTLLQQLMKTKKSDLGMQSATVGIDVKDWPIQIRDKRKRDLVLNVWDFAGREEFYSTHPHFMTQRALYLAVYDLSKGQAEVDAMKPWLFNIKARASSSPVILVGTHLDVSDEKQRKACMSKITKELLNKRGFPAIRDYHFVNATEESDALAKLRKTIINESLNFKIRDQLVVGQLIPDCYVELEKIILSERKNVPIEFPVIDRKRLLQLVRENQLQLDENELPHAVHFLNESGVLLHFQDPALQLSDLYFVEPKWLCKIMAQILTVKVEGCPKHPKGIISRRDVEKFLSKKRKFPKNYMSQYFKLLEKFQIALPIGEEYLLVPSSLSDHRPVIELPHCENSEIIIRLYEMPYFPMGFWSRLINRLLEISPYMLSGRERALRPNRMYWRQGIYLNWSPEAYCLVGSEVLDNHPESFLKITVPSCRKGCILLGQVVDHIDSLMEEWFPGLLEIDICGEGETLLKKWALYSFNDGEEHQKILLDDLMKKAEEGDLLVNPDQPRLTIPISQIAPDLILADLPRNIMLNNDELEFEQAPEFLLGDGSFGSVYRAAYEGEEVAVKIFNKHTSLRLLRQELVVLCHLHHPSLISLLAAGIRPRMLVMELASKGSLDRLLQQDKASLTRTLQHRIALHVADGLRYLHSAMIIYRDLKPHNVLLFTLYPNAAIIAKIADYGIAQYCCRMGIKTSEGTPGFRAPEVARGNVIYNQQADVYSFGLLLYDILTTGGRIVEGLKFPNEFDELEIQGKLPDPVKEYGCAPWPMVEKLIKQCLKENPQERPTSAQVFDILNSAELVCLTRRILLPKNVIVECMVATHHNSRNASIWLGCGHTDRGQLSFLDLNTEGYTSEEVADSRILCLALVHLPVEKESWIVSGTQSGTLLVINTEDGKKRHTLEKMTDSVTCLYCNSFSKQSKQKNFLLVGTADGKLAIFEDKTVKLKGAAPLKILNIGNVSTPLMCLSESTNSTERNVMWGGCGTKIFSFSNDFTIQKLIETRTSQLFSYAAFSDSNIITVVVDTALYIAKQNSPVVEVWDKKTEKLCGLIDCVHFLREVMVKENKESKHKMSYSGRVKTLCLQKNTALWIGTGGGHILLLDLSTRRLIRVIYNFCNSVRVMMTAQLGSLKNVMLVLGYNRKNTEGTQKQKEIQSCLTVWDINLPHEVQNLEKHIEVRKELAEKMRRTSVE
T1 sequence (Q5S007 970-2527 G2019S): as the sequence (Q5S007 970-2527) above, with G1050S counted along it

As for `Cc1c2c(nn1[C@H]1CCCCOC1)OCCCn1nc(Cl)c3cnc(nc31)N2` (single isomer, unassigned) [Example 27, (−)-(R) or (S)-8-Chloro-3-methyl-2-(oxepan-3-yl)-2,4,12,13-tetrahydro-11H-5,7-(azenometheno)dipyrazolo[3,4-b:5′,1′-g][1]oxa[4,6,8]triazacycloundecine], the “fuplasma (% free)” value in series [1] came out at 19.9 % free. Besides, the 50% inhibitory concentration (IC50) at LRRK2 G2019S is 7.3 nM; on LRRK2 WT, 25 nM. Moreover, the concentration at 1 h stood at 443 ± 50 ng/g in series [2] (setting [4]) and 273 ± 36 ng/mL in series [2] (setting [5]). Moreover, the Kp uu at 1 h in series [2] (oral gavage 5 mg/kg) was 0.52 ± 0.01. The compound also registered a Kp at 1 h in series [2] (oral gavage 5 mg/kg) of 1.63 ± 0.03. In series [3], this compound gave a CLint scaled at 0.1 μM of 9.5 mL/min/kg.

In the case of `Cc1c2c(nn1[C@H]1CCCOCC1)OCCCn1nc(Cl)c3cnc(nc31)N2` (single isomer, unassigned) [Example 29, (−)-(R) or (S)-8-Chloro-3-methyl-2-(oxepan-4-yl)-2,4,12,13-tetrahydro-11H-5,7-(azenometheno)dipyrazolo[3,4-b:5′,1′-g][1]oxa[4,6,8]triazacycloundecine], the figures for the IC50 on LRRK2 G2019S and on LRRK2 WT were 4.3 nM and 14 nM, respectively. In series [3], the CLint scaled at 0.1 μM was 6.33 mL/min/kg.

In the case of `Cc1c2c(nn1[C@@H]1CCOC[C@H]1F)OCCCn1nc(Cl)c3cnc(nc31)N2` (single isomer, unassigned) [Example 31, (−)-8-Chloro-2-((3S,4R) or (3R,4S)-3-fluorotetrahydro-2H-pyran-4-yl)-3-methyl-2,4,12,13-tetrahydro-11H-5,7-(azenometheno)dipyrazolo[3,4-b:5′,1′-g][1]oxa[4,6,8]triazacycloundecine], in series [1], the “fuplasma (% free)” value worked out at 24.9 % free. The IC50 on LRRK2 G2019S stood at 2.4 nM; at LRRK2 WT, 5.6 nM. In addition, the values for the concentration at 1 h in series [2] (setting [6]) and in series [2] (setting [7]) were 215 ± 70 ng/g and 133 ± 54 ng/mL, respectively. The compound further returned a Kp uu at 1 h in series [2] (oral gavage 10 mg/kg) of 0.5 ± 0.04. Further, the Kp at 1 h in series [2] (oral gavage 10 mg/kg) amounted to 1.65 ± 0.13. Also, the CLint scaled at 0.1 μM in series [3] was under 4.17 mL/min/kg.

As to `Cc1c2c(nn1[C@H]1CCOC(C)(C)C1)OCCCn1nc(Cl)c3cnc(nc31)N2` (single isomer, unassigned) [Example 42, (+)-(R) or (S)-8-Chloro-2-(2,2-dimethyltetrahydro-2H-pyran-4-yl)-3-methyl-2,4,12,13-tetrahydro-11H-5,7-(azenometheno)dipyrazolo[3,4-b:5′,1′-g][1]oxa[4,6,8]triazacycloundecine], in series [1], the “fuplasma (% free)” value was 21.7 % free. Moreover, the IC50 on LRRK2 G2019S amounted to 2.9 nM; on LRRK2 WT it was 7.9 nM. For the same compound, the concentration at 0.5 h is 550 ± 283 ng/g in series [2] (setting [6]) and 295 ± 145 ng/mL in series [2] (setting [7]). The compound also came in with a Kp uu at 0.5 h in series [2] (oral gavage 10 mg/kg) of 0.32 ± 0.05. The Kp at 0.5 h in series [2] (oral gavage 10 mg/kg) is 1.88 ± 0.31. The CLint scaled at 0.1 μM in series [3] was 6.33 mL/min/kg.

In the case of `[2H]C([2H])([2H])c1c2c(nn1[C@H]1CCCOCC1)OCCCn1nc(Cl)c3cnc(nc31)N2` (single isomer, unassigned) [Example 58, (+)-(R) or (S)-8-Chloro-3-(methyl-d3)-2-(oxepan-4-yl)-2,4,12,13-tetrahydro-11H-5,7-(azenometheno)dipyrazolo[3,4-b:5′,1′-g][1]oxa[4,6,8]triazacycloundecine], the IC50 was 7 nM at LRRK2 G2019S and 19 nM at LRRK2 WT. Also, the CLint scaled at 0.1 μM in series [3] is 5 mL/min/kg.

On to `[2H]C([2H])([2H])c1c2c(nn1[C@@H]1CCOC[C@H]1F)OCCCn1nc(Cl)c3cnc(nc31)N2` (single isomer, unassigned) [Example 62, (−)-8-Chloro-2-((3R,4S) or (3S,4R)-3-fluorotetrahydro-2H-pyran-4-yl)-3-(methyl-d3)-2,4,12,13-tetrahydro-11H-5,7-(azenometheno)dipyrazolo[3,4-b:5′,1′-g][1]oxa[4,6,8]triazacycloundecine], for which the IC50 on LRRK2 G2019S was determined as 5.9 nM; on LRRK2 WT it was 17 nM. The compound also had a CLint scaled at 0.1 μM in series [3] of under 4 mL/min/kg.

For the compound `[2H]C([2H])([2H])c1c2c(nn1C1([2H])CCOCC1)OCCCn1nc(Cl)c3cnc(nc31)N2` [Example 15, 8-Chloro-3-(methyl-d3)-2-(tetrahydro-2H-pyran-4-yl-4-d)-2,4,12,13-tetrahydro-11H-5,7-(azenometheno)dipyrazolo[3,4-b:5′,1′-g][1]oxa[4,6,8]triazacycloundecine], the figures for the IC50 on LRRK2 G2019S and on LRRK2 WT were 2.4 nM and 6.8 nM, respectively. The CLint scaled at 0.1 μM in series [3] was 4 mL/min/kg.

On to `Cc1c2c(nn1C13CC(C#N)(C1)C3)OCCCn1nc(Cl)c3cnc(nc31)N2` [Example 33, 3-(8-Chloro-3-methyl-12,13-dihydro-11H-5,7-(azenometheno)dipyrazolo[3,4-b:5′,1′-g][1]oxa[4,6,8]triazacycloundecin-2(4H)-yl)bicyclo[1.1.1]pentane-1-carbonitrile], for which the “fuplasma (% free)” value in series [1] is 11.0 % free. The IC50 amounted to 5.9 nM on LRRK2 G2019S and 18 nM at LRRK2 WT. Also, the results for the concentration at 1 h in series [2] (setting [4]) and in series [2] (setting [5]) were 37 ± 1 ng/g and 43 ± 9 ng/mL, respectively. In series [2] (oral gavage 5 mg/kg), this compound gave a Kp uu at 1 h of 0.4 ± 0.07. This compound also registered a Kp at 1 h in series [2] (oral gavage 5 mg/kg) of 0.87 ± 0.15.

On to `Cc1c2c(nn1[C@H]1[C@@H]3COC[C@@H]31)OCCCn1nc(Cl)c3cnc(nc31)N2` [Example 38, 2-((1R,5S,6r)-3-Oxabicyclo[3.1.0]hexan-6-yl)-8-chloro-3-methyl-2,4,12,13-tetrahydro-11H-5,7-(azenometheno)dipyrazolo[3,4-b:5′,1′-g][1]oxa[4,6,8]triazacycloundecine], for which the “fuplasma (% free)” value in series [1] is on record as 30.0 % free. The figures for the IC50 at LRRK2 G2019S and on LRRK2 WT were 11 nM and 28 nM, respectively. Moreover, the concentration at 0.5 h in series [2] (setting [6]) was 562 ± 83 ng/g; in series [2] (setting [7]) it was 355 ± 31 ng/mL. In addition, the Kp uu at 0.5 h in series [2] (oral gavage 10 mg/kg) amounted to 0.48 ± 0.03. In series [2] (oral gavage 10 mg/kg), this compound registered a partition ratio (Kp) at 0.5 h of 1.58 ± 0.1.

As for `CCc1c2c(nn1[C@H]1CC[C@H](OC)CC1)OCCCn1nc(Cl)c3cnc(nc31)N2` [Example 57, 8-Chloro-3-ethyl-2-((1r,4r)-4-methoxycyclohexyl)-2,4,12,13-tetrahydro-11H-5,7-(azenometheno)dipyrazolo[3,4-b:5′,1′-g][1]oxa[4,6,8]triazacycloundecine], the IC50 was found to be 6.2 nM at LRRK2 G2019S and 16 nM on LRRK2 WT. The CLint scaled at 0.1 μM in series [3] is 8.5 mL/min/kg.
